For one experiment, the target named is T1, Cytochrome P450 26A1 (Homo sapiens, UniProt O43174).
T1 sequence (O43174 whole entry): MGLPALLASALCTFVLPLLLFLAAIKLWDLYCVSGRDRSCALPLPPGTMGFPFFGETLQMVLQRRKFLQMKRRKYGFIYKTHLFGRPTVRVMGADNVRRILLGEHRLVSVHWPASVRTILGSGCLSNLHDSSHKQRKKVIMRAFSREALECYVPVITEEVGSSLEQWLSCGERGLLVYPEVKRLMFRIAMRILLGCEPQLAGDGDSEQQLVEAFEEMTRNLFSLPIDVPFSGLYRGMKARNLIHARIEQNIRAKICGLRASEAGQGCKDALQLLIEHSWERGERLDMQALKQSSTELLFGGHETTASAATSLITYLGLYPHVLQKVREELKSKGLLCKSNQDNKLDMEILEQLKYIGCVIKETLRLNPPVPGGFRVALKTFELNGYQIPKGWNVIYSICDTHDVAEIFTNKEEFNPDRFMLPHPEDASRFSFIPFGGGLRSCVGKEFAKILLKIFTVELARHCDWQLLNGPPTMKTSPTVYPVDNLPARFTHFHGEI
The experiment is described as follows: Potency towards cytochrome P 450 26 enzyme activity.

Experiment [1] in a line: Potency towards AT 6.1 cell. Format: functional, Rattus norvegicus.
Experiment [2] has as its system T47D. Nature of the experiment: Potency towards T47D cell; Inactive at 1 uM. Format: functional.
Experiment [3] is described as follows: Potency towards AT 6.1 cell; Inactive at 250 nM. Format: functional, Rattus norvegicus.
The subject of experiment [4] is T47D. Nature of the experiment: Potency towards T47D cell. Format: functional, cell-based, Rattus norvegicus. As to conditions: Homo sapiens; call rule not given here.
The next experiment deals with Rattus norvegicus. The experiment is described as follows: Potency (30 mg/kg, bid) was determined towards AT 6.1 cell. Format: organism-based.

As usually defined, the IC50 is the concentration that gives 50% inhibition. Take `CC(C(c1ccc2cc(OCc3ccc(C#N)cc3)ccc2c1)n1ccnc1)N(C)C` (stereo in doubt; syn): the IC50 on Cytochrome P450 26A1 turned out to be 6 nM. Same read-out and setting: the value for `CC(C(c1ccc2cc(OCc3ccc(OC(C)(C)C)cc3)ccc2c1)n1ccnc1)N(C)C` (stereo in doubt; anti) was 86 nM. Compound `CC(C(c1ccc2cc(OCc3ccc(C#N)cc3)ccc2c1)n1ccnc1)N(C)C` (stereo in doubt; anti) displayed an IC50 against Cytochrome P450 26A1 of 71 nM.

With `COC(=O)COc1ccc(COc2ccc3cc(C(C(C)N(C)C)n4ccnc4)ccc3c2)cc1` (stereo in doubt; anti), on Cytochrome P450 26A1, half-maximal inhibition (IC50) required 153 nM.

Take `CC(C(c1ccc2cc(OCc3ccc(OC(C)(C)C)cc3)ccc2c1)n1ccnc1)N(C)C` (stereo in doubt; syn): the concentration for half-maximal inhibition (IC50) on Cytochrome P450 26A1 is 34 nM. Still for that read-out and setting: the value for `COC(=O)c1cccc(COc2ccc3cc(C(C(C)N(C)C)n4ccnc4)ccc3c2)c1` (stereo in doubt; anti) was 18 nM; that for `CC(C(c1ccc2cc(OCC(=O)O)ccc2c1)n1ccnc1)N(C)C` (stereo unspecified) was 335 nM.

In turn, `CC(C(c1ccc2cc(OCC(C)(C)C(=O)N(C)C)ccc2c1)n1ccnc1)N(C)C` (stereo unspecified) registered an IC50 in experiment [1] of 250 nM.

As to `CNC(=O)c1cccc(COc2ccc3cc(C(C(C)N(C)C)n4ccnc4)ccc3c2)c1` (stereo unspecified), the IC50 on Cytochrome P450 26A1 was 37 nM; with T47D [2] it was “Inactive at 1 uM”; in experiment [1], 250 nM. Regarding `CNC(=O)C(C)(C)COc1ccc2cc(C(C(C)N(C)C)n3ccnc3)ccc2c1` (stereo unspecified), the results for the IC50 (against Cytochrome P450 26A1; in the experiment on T47D [2]; in experiment [3]) were 54 nM, “Inactive at 1 uM” and “Inactive at 1 uM”, respectively. As for `CC(C(c1ccc2cc(OCc3ccc(CC(=O)O)cc3)ccc2c1)n1ccnc1)N(C)C` (stereo unspecified), the IC50 against Cytochrome P450 26A1 came out at 25 nM. On to `CC(C(c1ccc2cc(OCC(C)(C)C(N)=O)ccc2c1)n1ccnc1)N(C)C` (stereo unspecified), for which the IC50 is 47 nM on Cytochrome P450 26A1, “Inactive at 250 nM” in experiment [3] and 250 nM in the experiment with T47D [4]. Turning to `CC(C(c1ccc2cc(OCC(C)(C)C(=O)O)ccc2c1)n1ccnc1)N(C)C` (stereo unspecified), the figures for the IC50 (with T47D [4]; in experiment [1]) were 125 nM and 300 nM, respectively. In general, inhibition refers to the share of the control response that was lost under treatment. Read a high inhibition as strong suppression. In the case of `Clc1cccc(C(c2ccc3[nH]cnc3c2)n2ccnc2)c1` (stereo unspecified), in the experiment on Rattus norvegicus, the inhibition was 90%. With `CC(C(c1ccc2cc(OCc3cccc(C(=O)N(C)C)c3)ccc2c1)n1ccnc1)N(C)C` (stereo unspecified), the concentration for half-maximal inhibition (IC50) on Cytochrome P450 26A1 was 14.4 nM; with T47D [2] it was “Inactive at 1 uM”. `CC(C(c1ccc2cc(OCc3ccc(C(=O)O)cc3)ccc2c1)n1ccnc1)N(C)C` (stereo in doubt; anti) returned an IC50 at Cytochrome P450 26A1 of 12 nM.

`CC(C(c1ccc2cc(OCc3cccc(C(=O)O)c3)ccc2c1)n1ccnc1)N(C)C` (stereo in doubt; syn): on Cytochrome P450 26A1, the midpoint of inhibition, the IC50, lay at 3.5 nM. The same measure, in the same setting: under `CC(C(c1ccc2cc(OCc3cccc(C(=O)O)c3)ccc2c1)n1ccnc1)N(C)C` (stereo in doubt; anti) stands 6.3 nM; under `COC(=O)COc1ccc(COc2ccc3cc(C(C(C)N(C)C)n4ccnc4)ccc3c2)cc1` (stereo in doubt; syn), 19 nM; under `COC(=O)c1ccc(COc2ccc3cc(C(C(C)N(C)C)n4ccnc4)ccc3c2)cc1` (stereo in doubt; anti), 85 nM.

Regarding `CC(C(c1ccc2cc(OCc3ccc(C(=O)O)cc3)ccc2c1)n1ccnc1)N(C)C` (stereo in doubt; syn), the figures for the IC50 (at Cytochrome P450 26A1; in the experiment on T47D [4]; in experiment [1]) were 3.3 nM, under 100 nM and under 100 nM, respectively.

In the case of `COC(=O)c1cccc(COc2ccc3cc(C(C(C)N(C)C)n4ccnc4)ccc3c2)c1` (stereo in doubt; syn), inhibition against Cytochrome P450 26A1 was half-maximal at 7 nM (IC50). With `CC(C(c1ccc2cc(OCc3cccc(C(N)=O)c3)ccc2c1)n1ccnc1)N(C)C` (stereo unspecified), the half-maximal inhibitory concentration (IC50) entry (with T47D [2]; in experiment [3]) was “Inactive at 1 uM” each time.

`CC(C(c1ccc2cc(OCc3ccc(OCC(=O)O)cc3)ccc2c1)n1ccnc1)N(C)C` (stereo unspecified) had a half-inhibitory concentration (IC50) against Cytochrome P450 26A1 of 8 nM. Still for that read-out and setting: the value for `COC(=O)c1ccc(COc2ccc3cc(C(C(C)N(C)C)n4ccnc4)ccc3c2)cc1` (stereo in doubt; syn) was 16 nM.
